Values of other authors in patent US20160045473A1, “Biological Basis Of Adult Wellness” (priority 2012, published 2016).

Settings: healthy volunteers, at least one study

O=C(O)[C@@H]1CCCN1 [proline, L-proline]
absorption: well absorbed
